Experimental data as given in patent US7723473B2, “Peptide antagonists of TGF-beta family members and therapeutic uses thereof” (St. Louis University, priority 1997, dated 2010).

Key:
α2-macroglobulin = biological target: T1, α2-macroglobulin (Homo sapiens, UniProt P01023); conditions: Ref. 22; cited from earlier work
T1 sequence (P01023 24-1474): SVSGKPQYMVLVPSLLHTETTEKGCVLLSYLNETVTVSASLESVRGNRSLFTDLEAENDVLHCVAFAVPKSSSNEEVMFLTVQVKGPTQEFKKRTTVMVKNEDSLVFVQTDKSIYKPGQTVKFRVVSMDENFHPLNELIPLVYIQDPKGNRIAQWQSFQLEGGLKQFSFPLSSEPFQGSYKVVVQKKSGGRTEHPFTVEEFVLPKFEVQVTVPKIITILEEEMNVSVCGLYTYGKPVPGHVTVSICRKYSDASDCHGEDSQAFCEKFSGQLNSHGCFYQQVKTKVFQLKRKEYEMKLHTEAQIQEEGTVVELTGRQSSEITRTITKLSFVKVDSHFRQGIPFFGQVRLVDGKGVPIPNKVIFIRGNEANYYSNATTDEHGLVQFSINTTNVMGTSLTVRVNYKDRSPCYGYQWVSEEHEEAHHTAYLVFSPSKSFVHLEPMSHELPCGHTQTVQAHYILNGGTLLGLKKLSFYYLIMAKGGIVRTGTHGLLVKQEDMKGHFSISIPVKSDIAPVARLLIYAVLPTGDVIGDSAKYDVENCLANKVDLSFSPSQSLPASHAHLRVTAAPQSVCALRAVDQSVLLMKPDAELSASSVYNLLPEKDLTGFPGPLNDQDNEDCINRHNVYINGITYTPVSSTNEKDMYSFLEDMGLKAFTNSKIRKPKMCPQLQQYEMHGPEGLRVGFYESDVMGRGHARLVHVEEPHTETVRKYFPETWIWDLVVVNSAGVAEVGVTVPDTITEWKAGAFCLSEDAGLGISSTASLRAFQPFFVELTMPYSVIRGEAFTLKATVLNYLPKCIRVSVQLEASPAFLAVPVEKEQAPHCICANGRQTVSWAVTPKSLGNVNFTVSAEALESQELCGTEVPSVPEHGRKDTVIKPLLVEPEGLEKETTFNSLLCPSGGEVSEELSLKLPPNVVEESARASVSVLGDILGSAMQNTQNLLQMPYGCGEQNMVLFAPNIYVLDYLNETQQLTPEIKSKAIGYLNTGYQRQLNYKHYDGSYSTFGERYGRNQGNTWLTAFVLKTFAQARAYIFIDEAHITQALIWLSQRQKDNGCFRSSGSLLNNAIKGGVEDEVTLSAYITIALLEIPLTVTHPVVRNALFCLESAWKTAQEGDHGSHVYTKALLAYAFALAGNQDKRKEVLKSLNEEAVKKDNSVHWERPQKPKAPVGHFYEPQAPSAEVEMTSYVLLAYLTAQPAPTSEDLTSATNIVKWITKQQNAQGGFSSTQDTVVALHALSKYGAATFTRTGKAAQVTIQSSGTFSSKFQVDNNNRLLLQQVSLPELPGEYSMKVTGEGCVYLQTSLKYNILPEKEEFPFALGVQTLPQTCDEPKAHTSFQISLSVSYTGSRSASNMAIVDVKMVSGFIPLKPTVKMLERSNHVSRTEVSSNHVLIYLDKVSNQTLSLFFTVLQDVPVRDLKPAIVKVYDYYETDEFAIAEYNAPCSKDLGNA

[1] = tested on: mink lung epithelial cells; assay: Blocking of TGF-β1-induced growth inhibition ([methyl-3H]thymidine incorporation, DNA synthesis); type: cell-based
Description: [Methyl-^3H]thymidine Incorporation—Mink lung epithelial cells grown on 24-well clustered dishes were incubated with various concentrations of TGF-β1 in the presence and absence of peptide β1^25 (41-65) or with various concentrations of peptide β1^25 (41-65)-CA, and peptide β1^25 (41-65)-BSA in DMEM containing 0.1% fetal calf serum. After 16 hr at 37° C., the cells were pulsed with 1 μCi/ml of [methyl-^3H]thymidine for 4 hr. The cells were then washed twice with 1 ml of 10% trichloroacetic acid and once with 0.5 ml of ethanol:ether (2:1, v/v). The cells were then dissolved in 0.4 ml of 0.2 N NaOH and counted with a liquid scintillation counter.

TGF-β receptors = assay: Inhibition of specific binding of 125I-TGF-β1 to TGF-β receptors in mink lung epithelial cells; conditions: peptide at 34 μM
Description: Specific binding of ^125I-labeled TGF-β1, TGF-β2, and TGF-β3 (^125I-TGF-β1, ^125I-TGF-β2, and ^125I-TGF-β3) to TGF-β receptors in mink lung epithelial cells. ^125I-TGF-β1, ^125I-TGF-β2, and ^125I-TGF-β3 were prepared by iodination of TGF-β1, TGF-β2, and TGF-β3 with Na^125I as described previously (Ref. 7). The specific radioactivities of ^125I-TGF-β1, ^125I-TGF-β2, and ^125I-TGF-β3 were 1-3×10^5 cpm/ng. Mink lung epithelial cells were grown on 24-well clustered dishes to near confluence in Dulbecco's modified Eagle medium (DMEM) containing 10% fetal calf serum. The epithelial cells were incubated with 0.1 nM ^125I-TGF-β1, ^125I-TGF-β2, or ^125I-TGF-β3 both with and without 100-fold excess of unlabeled TGF-β1, TGF-β2, or TGF-β3 in binding buffer (Ref. 7). After 2.5 hr at 0° C., the cells were washed two times with binding buffer, and the cell-associated radioactivity was determined. […] All experiments were carried out in triplicate cell cultures.

Sequence: ANFCLGPCPYIWSLDTQYSKVLALY [peptide β1^25 (41-65)]
- complex formation between α2-macroglobulin and growth factors, cytokines and hormones (α2-macroglobulin): block complex formation
- blocking of DNA synthesis inhibition induced by TGF-β1 ([1]; 0.025 ρM and 0.25 ρM TGF-β1, 18 μM peptide): completely blocked
- blocking of TGF-β1-induced growth inhibition, dose dependence ([1]; 0.25 ρM TGF-β1, various concentrations of peptide): concentration-dependent manner
- inhibition of 125I-TGF-β1 binding to TGF-β receptors (TGF-β receptors): completely inhibited
